The target in the assay is T1, FLT3-ITD (Homo sapiens, UniProt P36888).
T1 sequence (P36888 1-993): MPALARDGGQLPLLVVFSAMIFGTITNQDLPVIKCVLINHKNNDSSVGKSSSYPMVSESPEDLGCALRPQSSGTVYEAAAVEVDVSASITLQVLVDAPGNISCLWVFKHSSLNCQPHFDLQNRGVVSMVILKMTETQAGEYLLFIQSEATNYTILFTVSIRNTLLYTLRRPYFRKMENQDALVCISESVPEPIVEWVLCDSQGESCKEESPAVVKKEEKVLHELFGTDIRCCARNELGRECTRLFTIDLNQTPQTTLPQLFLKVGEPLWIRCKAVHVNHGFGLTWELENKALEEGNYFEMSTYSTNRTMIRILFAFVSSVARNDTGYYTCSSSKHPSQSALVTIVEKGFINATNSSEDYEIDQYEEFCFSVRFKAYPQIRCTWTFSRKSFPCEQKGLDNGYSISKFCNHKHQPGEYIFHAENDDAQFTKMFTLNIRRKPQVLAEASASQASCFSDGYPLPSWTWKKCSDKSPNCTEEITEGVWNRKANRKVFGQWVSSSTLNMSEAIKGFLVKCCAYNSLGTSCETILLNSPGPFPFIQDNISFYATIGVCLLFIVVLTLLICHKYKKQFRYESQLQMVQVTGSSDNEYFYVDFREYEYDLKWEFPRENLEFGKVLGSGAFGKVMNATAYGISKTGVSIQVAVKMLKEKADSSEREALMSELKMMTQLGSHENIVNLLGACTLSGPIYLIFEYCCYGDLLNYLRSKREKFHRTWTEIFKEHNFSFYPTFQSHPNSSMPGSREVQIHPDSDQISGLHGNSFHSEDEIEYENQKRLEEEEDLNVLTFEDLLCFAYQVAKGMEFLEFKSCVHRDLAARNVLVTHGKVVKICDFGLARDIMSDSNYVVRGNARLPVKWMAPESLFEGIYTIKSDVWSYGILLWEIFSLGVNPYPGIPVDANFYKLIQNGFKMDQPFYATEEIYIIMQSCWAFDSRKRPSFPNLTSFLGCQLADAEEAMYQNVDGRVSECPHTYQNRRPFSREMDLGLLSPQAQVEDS
As to the kind of experiment: FLT3-ITD recombinant enzyme kinase assay (AlphaScreen). As to conditions: 8 pt; read-out: FLT3_ITD 8 pt: IC50. In kind it is biochemical. The method in brief:
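Recombinant enzyme phosphorylated biotinylated poly(Glu4-Tyr) peptide (30 nM final) with ATP at 10 μM for FLT3-ITD and FLT3-D835Y or 100 μM for c-KIT. Phosphopeptide was detected by AlphaScreen with streptavidin donor and anti-phosphotyrosine (PY20) acceptor beads (10 μg/mL), read at 580 nm, for IC50 determination.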
On the technique in general: In Alpha technology, singlet oxygen from a donor bead excites a nearby acceptor bead.

Each structure is given as a SMILES string.

In the case of `COc1ncc(NC(=O)Cc2ccc(-c3cnc4[nH]c(C#CC(C)(C)O)cc4c3)cc2)cc1C(F)(F)F` [Compound P-0214, 2-(4-(2-(3-hydroxy-3-methylbut-1-yn-1-yl)-1H-pyrrolo[2,3-b]pyridin-5-yl)phenyl)-N-(6-methoxy-5-(trifluoromethyl)pyridin-3-yl)acetamide], the IC50 fell in the range of 0.0001 to 10 µM. Regarding `Cc1ncc(NC(=O)Cc2ccc(-c3cnc(Nc4cnn(C5CC5)c4)nc3)cc2F)cc1C(F)(F)F` [Compound P-0239, 2-[4-[2-[(1-cyclopropylpyrazol-4-yl)amino]pyrimidin-5-yl]-2-fluoro-phenyl]-N-[6-methyl-5-(trifluoromethyl)-3-pyridyl]acetamide], the half-inhibitory concentration (IC50) lay in the range of 0.0001 to 10 µM. For `O=C(Cc1cc(F)c(-c2cnc(Nc3cnn(C(F)F)c3)nc2)cc1F)Nc1cc(C(F)(F)F)ccn1` [Compound P-0021, 2-[4-[2-[[1-(difluoromethyl)pyrazol-4-yl]amino]pyrimidin-5-yl]-2,5-difluoro-phenyl]-N-[4-(trifluoromethyl)-2-pyridyl]acetamide], the half-inhibitory concentration (IC50) is 0.0001 to 10 µM. For the compound `COc1ncc(NC(=O)Cc2ccc(-c3cnc(Nc4cnn(C(F)F)c4)nc3)cc2)cc1C(F)(F)F` [Compound P-0211, 2-[4-[2-[[1-(difluoromethyl)pyrazol-4-yl]amino]pyrimidin-5-yl]phenyl]-N-[6-methoxy-5-(trifluoromethyl)-3-pyridyl]acetamide], the half-inhibitory concentration (IC50) was 0.0001 to 10 µM.

For the compound `CCn1cc(Nc2ncc(-c3ccc(CC(=O)Nc4ccc(C(F)(F)F)nc4)cc3)cn2)cn1` [Compound P-0252, 2-[4-[2-[(1-ethylpyrazol-4-yl)amino]pyrimidin-5-yl]phenyl]-N-[6-(trifluoromethyl)-3-pyridyl]acetamide], the IC50 lay within 0.0001 to 10 µM. As for `COCCn1cc(Nc2ncc(-c3ccc(CC(=O)Nc4cnc(Cl)c(C(F)(F)F)c4)c(F)c3)cn2)cn1` [Compound P-0266, N-[6-chloro-5-(trifluoromethyl)-3-pyridyl]-2-[2-fluoro-4-[2-[[1-(2-methoxyethyl)pyrazol-4-yl]amino]pyrimidin-5-yl]phenyl]acetamide], the IC50 was in the range of 0.0001 to 10 µM.

In general, IC50 refers to the midpoint of a concentration-inhibition curve.

Source of the values: patent US10160747B2, “Compounds and methods for kinase modulation, and indications therefor” (Plexxikon Inc., priority 2016, dated 2018).
